Source: patent US9351989B2, “Substituted purine nucleosides, phosphoroamidate and phosphorodiamidate derivatives for treatment of viral infections” (INHIBITEX, INC., priority 2010, dated 2016)

Experiments:
[1] = Cytotoxicity assay (CellTiter-Glo); assay type: cell-based; details: human, toxicity to the cells, 72 h incubation, CellTiter-Glo cell viability
Procedure: (§1) Further to the above Examples, representative compounds, prepared according to the examples were tested for potency in an HCV replicon assay (Genotype 1b) for activity against the virus (EC50) and toxicity to the cells (CC50).
(§2) A luciferase-reporter genotype 1b subgenomic replicon cell line, and a genotype 1a full-length replicon cell line were obtained from Apath, LLC, Brooklyn, N.Y.: All cell lines were passaged twice a week by splitting 4 or 6 fold. Cells were maintained in DMEM-high glucose medium (HyClone, Logan, Utah) supplemented with 9% FBS (HyClone), 2 mM glutamine (Invitrogen, Carlsbad, Calif.), 100 U/mL PenStrep (Invitrogen). Media also contained 0.25 mg/mL of the antibiotic G-418 to maintain stable expression of the replicon (Invitrogen). Incubation was performed at 37° C. in 5% CO2 atmosphere. Replicon cell lines were used until they accumulated 15-to-18 passages, after which cells were restarted from the frozen stock. Seeding cell counts were routinely determined using an automatic Cedex HiRes cell counter (Flownomics Analytical Instruments, Madison, Wis.) or manually using INCYTO C—Chip™ Disposable Hemacytometers (Fisher Scientific, Pittsburgh, Pa.).
The cell cytotoxicity assay data was obtained as described below:
Cells were seeded into 96-well plates at a density of 2×10^4 cells per well. 24 h after cell plating, 11 serial 2× compound dilutions, starting with 100 μM, were applied to the testing plates (3 repeats per compound dilution). Each testing plate was run with a “no-compound” control. Incubation with compounds was continued at 37° C. in a CO2 incubator for 72 h. To determine cell viability, the CellTiter-Glo® assay (Promega, Madison, Wis.) was performed according to the manufacturer's protocol. The compound concentration resulting in 50% luminescent signal was reported as the CC50 concentration.

[2] = system: HCV replicon (Genotype 1b); experiment: Luciferase genotype 1b replicon potency assay; assay type: cell-based; details: Hepatitis C virus, Huh-7; luciferase-reporter genotype 1b subgenomic replicon cell line (Huh7); Renilla luciferase reporter activity
Procedure: as §1
Huh7 Replicon Cell Lines and Cell Culture Conditions:
as §2
The anti-HCV assays were done accordingly:
Luciferase Genotype 1b Replicon Potency Assay.
Replicon cells were seeded into white 96-well plates (Nunc/VWR) at a density of 2×10^4 cells/well in medium without G-418. A Stacker Multidrop Liquid Dispenser (MTX Lab Systems, Vienna, Va.) was employed to ensure uniform and fast cell seeding into multiple plates. 18-24 h after cell plating, inhibitors were added and cells were incubated for additional 24, 48, or 72 h (as indicated). Compounds were tested in triplicates and quadruplicates at 3× or 4× serial dilutions over a range of 0.0001-to-10 μM concentrations. HCV replication was monitored by Renilla luciferase reporter activity assay using Renilla luciferase reporter (Promega, Madison, Wis.) and a Veritas Luminometer (Turner Biosystems, Sunnyvale, Calif.). 50% and 90% inhibitory concentration (IC50 and IC90) values were calculated as the concentration of compound that results correspondingly in 50% and 90% decreases in the reporter expression as compared to untreated cells. The values were determined by non-linear regression (four-parameter sigmoidal curve fitting) analysis.

[3] = Huh7 HCV genotype 1b replicon cells

Row | SMILES | CC50 at 72 h [1, 3] | IC50 [2] | CC50 at 72 h [1]
1 | COc1nc(N)nc2c1nc(I)n2[C@@H]1O[C@H](CO)[C@@H](O)[C@@]1(C)O [Example 3, (2R,3R,4R,5R)-2-(2-Amino-8-iodo-6-methoxy-9H-purin-9-yl)-5-(hydroxymethyl)-3-methyltetrahydrofuran-3,4-diol] | > 100 µM | 6.1 µM | –
2 | COc1nc(N)nc2c1nc(Br)n2[C@@H]1O[C@H](CO)[C@@H](O)[C@@]1(C)O [Example 5, (2R,3R,4R,5R)-2-(2-Amino-8-bromo-6-methoxy-9H-purin-9-yl)-5-(hydroxymethyl)-3-methyltetrahydrofuran-3,4-diol] | > 100 µM | > 100 µM | –
3 | COc1nc(N)nc2c1nc(Cl)n2[C@@H]1O[C@H](CO)[C@@H](O)[C@@]1(C)O [Example 6, (2R,3R,4R,5R)-2-(2-Amino-8-chloro-6-methoxy-9H-purin-9-yl)-5-(hydroxymethyl)-3-methyltetrahydrofuran-3,4-diol] | > 100 µM | > 100 µM | –
4 | COc1nc(N)nc2c1nc(I)n2[C@@H]1O[C@H](COP(=O)(N[C@@H](C)C(=O)OCc2ccccc2)Oc2cccc3ccccc23)[C@@H](O)[C@@]1(C)O (stereo partly drawn) [Example 7] | – | 0.031 µM | 18 µM
5 | COc1nc(N)nc2c1nc(I)n2[C@@H]1O[C@H](COP(=O)(N[C@@H](C)C(=O)OCc2ccc(F)cc2F)Oc2cccc3ccccc23)[C@@H](O)[C@@]1(C)O (stereo partly drawn) [Example 8, (2S)-2,4-Difluorobenzyl 2-((((2R,3R,4R,5R)-5-(2-Amino-8-iodo-6-methoxy-9H-purin-9-yl)-3,4-dihydroxy-4-methyltetrahydrofuran-2-yl)methoxy)(naphthalen-1-yloxy)phosphorylamino)propanoate] | – | 0.009 µM | 8.1 µM
6 | CCCOC(=O)[C@H](C)NP(=O)(OC[C@H]1O[C@@H](n2c(I)nc3c(OC)nc(N)nc32)[C@](C)(O)[C@@H]1O)Oc1cccc2ccccc12 (stereo partly drawn) [Example 9, (2S)-Propyl 2-((((2R,3R,4R,5R)-5-(2-Amino-8-iodo-6-methoxy-9H-purin-9-yl)-3,4-dihydroxy-4-methyltetrahydrofuran-2-yl)methoxy)(naphthalen-1-yloxy)phosphorylamino)propanoate] | – | 0.009 µM | 6 µM
7 | CCCCOC(=O)[C@H](C)NP(=O)(OC[C@H]1O[C@@H](n2c(I)nc3c(OC)nc(N)nc32)[C@](C)(O)[C@@H]1O)Oc1cccc2ccccc12 (stereo partly drawn) [Example 10, (2S)-Butyl 2-((((2R,3R,4R,5R)-5-(2-Amino-8-iodo-6-methoxy-9H-purin-9-yl)-3,4-dihydroxy-4-methyltetrahydrofuran-2-yl)methoxy)(naphthalen-1-yloxy)phosphorylamino)propanoate] | – | 0.011 µM | 7.9 µM
8 | CCCCCOC(=O)[C@H](C)NP(=O)(OC[C@H]1O[C@@H](n2c(I)nc3c(OC)nc(N)nc32)[C@](C)(O)[C@@H]1O)Oc1cccc2ccccc12 (stereo partly drawn) [Example 11, (2S)-Pentyl 2-((((2R,3R,4R,5R)-5-(2-Amino-8-iodo-6-methoxy-9H-purin-9-yl)-3,4-dihydroxy-4-methyltetrahydrofuran-2-yl)methoxy)(naphthalen-1-yloxy)phosphorylamino)propanoate] | – | 0.012 µM | 11 µM
9 | COc1nc(N)nc2c1nc(I)n2[C@@H]1O[C@H](COP(=O)(N[C@@H](C)C(=O)OCC(C)(C)C)Oc2cccc3ccccc23)[C@@H](O)[C@@]1(C)O (stereo partly drawn) [Example 12, (2S)-Neopentyl 2-((((2R,3R,4R,5R)-5-(2-Amino-8-iodo-6-methoxy-9H-purin-9-yl)-3,4-dihydroxy-4-methyltetrahydrofuran-2-yl)methoxy)(naphthalen-1-yloxy)phosphorylamino)propanoate] | – | 0.02 µM | 14 µM
10 | COc1nc(N)nc2c1nc(Br)n2[C@@H]1O[C@H](COP(=O)(N[C@@H](C)C(=O)OCC(C)(C)C)Oc2cccc3ccccc23)[C@@H](O)[C@@]1(C)O (stereo partly drawn) [Example 13, (2S)-Neopentyl 2-((((2R,3R,4R,5R)-5-(2-Amino-8-bromo-6-methoxy-9H-purin-9-yl)-3,4-dihydroxy-4-methyltetrahydrofuran-2-yl)methoxy)(naphthalen-1-yloxy)phosphorylamino)propanoate] | – | 15 µM | 60 µM
11 | COc1nc(N)nc2c1nc(Cl)n2[C@@H]1O[C@H](COP(=O)(N[C@@H](C)C(=O)OCC(C)(C)C)Oc2cccc3ccccc23)[C@@H](O)[C@@]1(C)O (stereo partly drawn) [Example 14, (2S)-Neopentyl 2-((((2R,3R,4R,5R)-5-(2-Amino-8-chloro-6-methoxy-9H-purin-9-yl)-3,4-dihydroxy-4-methyltetrahydrofuran-2-yl)methoxy)(naphthalen-1-yloxy)phosphorylamino)propanoate] | – | > 10 µM | 60 µM
12 | COc1nc(N)nc2c1nc(I)n2[C@@H]1O[C@H](COP(=O)(N[C@@H](C)C(=O)OC2CCC2)Oc2cccc3ccccc23)[C@@H](O)[C@@]1(C)O (stereo partly drawn) [Example 15, (2S)-Cyclobutyl 2-((((2R,3R,4R,5R)-5-(2-Amino-8-iodo-6-methoxy-9H-purin-9-yl)-3,4-dihydroxy-4-methyltetrahydrofuran-2-yl)methoxy)(naphthalen-1-yloxy)phosphorylamino)propanoate] | – | 0.01 µM | 6.8 µM
13 | COc1nc(N)nc2c1nc(I)n2[C@@H]1O[C@H](COP(=O)(N[C@@H](C)C(=O)OC2CCCC2)Oc2cccc3ccccc23)[C@@H](O)[C@@]1(C)O (stereo partly drawn) [Example 16, (2S)-Cyclopentyl 2-((((2R,3R,4R,5R)-5-(2-Amino-8-iodo-6-methoxy-9H-purin-9-yl)-3,4-dihydroxy-4-methyltetrahydrofuran-2-yl)methoxy)(naphthalen-1-yloxy)phosphorylamino)propanoate] | – | 0.012 µM | 13 µM
14 | COc1nc(N)nc2c1nc(I)n2[C@@H]1O[C@H](COP(=O)(N[C@@H](C)C(=O)OC2CCCCC2)Oc2cccc3ccccc23)[C@@H](O)[C@@]1(C)O (stereo partly drawn) [Example 17, (2S)-Cyclohexyl 2-((((2R,3R,4R,5R)-5-(2-Amino-8-iodo-6-methoxy-9H-purin-9-yl)-3,4-dihydroxy-4-methyltetrahydrofuran-2-yl)methoxy)(naphthalen-1-yloxy)phosphorylamino)propanoate] | – | 0.016 µM | 11 µM
15 | COc1nc(N)nc2c1nc(I)n2[C@@H]1O[C@H](COP(=O)(N[C@@H](C)C(=O)OC2CCOCC2)Oc2cccc3ccccc23)[C@@H](O)[C@@]1(C)O (stereo partly drawn) [Example 18, (2S)-Tetrahydro-2H-pyran-4-yl 2-((((2R,3R,4R,5R)-5-(2-Amino-8-iodo-6-methoxy-9H-purin-9-yl)-3,4-dihydroxy-4-methyltetrahydrofuran-2-yl)methoxy)(naphthalen-1-yloxy)phosphorylamino)propanoate] | – | 0.018 µM | 26 µM
16 | COc1nc(N)nc2c1nc(I)n2[C@@H]1O[C@H](COP(=O)(N[C@@H](CCSC)C(=O)OCc2ccccc2)Oc2cccc3ccccc23)[C@@H](O)[C@@]1(C)O (stereo partly drawn) [Example 19, (2S)-Benzyl 2-((((2R,3R,4R,5R)-5-(2-Amino-8-iodo-6-methoxy-9H-purin-9-yl)-3,4-dihydroxy-4-methyltetrahydrofuran-2-yl)methoxy)(naphthalen-1-yloxy)phosphorylamino)-4-(methylthio)butanoate] | – | 0.034 µM | 29 µM
17 | COc1nc(N)nc2c1nc(I)n2[C@@H]1O[C@H](COP(=O)(N[C@H](C(=O)OCc2ccccc2)C(C)C)Oc2cccc3ccccc23)[C@@H](O)[C@@]1(C)O (stereo partly drawn) [Example 20, (2S)-Benzyl 2-((((2R,3R,4R,5R)-5-(2-Amino-8-iodo-6-methoxy-9H-purin-9-yl)-3,4-dihydroxy-4-methyltetrahydrofuran-2-yl)methoxy)(naphthalen-1-yloxy)phosphorylamino)-3-methylbutanoate] | – | 0.14 µM | 25 µM
18 | COc1nc(N)nc2c1nc(I)n2[C@@H]1O[C@H](COP(=O)(N[C@@H](C)C(=O)OCc2ccccc2)N[C@@H](C)C(=O)OCc2ccccc2)[C@@H](O)[C@@]1(C)O [Example 21, (2S,2′S)-Benzyl 2,2′-((((2R,3R,4R,5R)-5-(2-Amino-8-iodo-6-methoxy-9H-purin-9-yl)-3,4-dihydroxy-4-methyltetrahydrofuran-2-yl)methoxy)phosphoryl)bis(azanediyl)dipropanoate] | 22 µM | 0.046 µM | –
